From ChEMBL document CHEMBL4334495, “Design and Biological Evaluation of m-Xylene Thioether-Stapled Short Helical Peptides Targeting the HIV-1 gp41 Hexameric Coiled-Coil Fusion Complex” (J Med Chem, 2019)
Activity calls are given as the source filed them. No cut-off for these calls is given here. Starred links: 1 amine or outer side, 2 acyl side, 3 side chain; linkers in the order of their positions; H or OH if unused. Positions of bridges follow the written chain, without caps; N, C: chain ends. Non-standard residues stand in square brackets, D forms with d. Residues, ends and D or L forms follow the SMILES beside them. ξ: configuration not given here. mXylylene = c1cc(C[*:1])cc(C[*:2])c1; ξhCys = NC(CCS)C(=O)O

Assays:
[1] = molecular target: Envelope glycoprotein gp160 (Human immunodeficiency virus 1) (UniProt Q6QLK5); experiment: Binding affinity to HIV1 GP41 using GP41 NHR derived N36 peptide assessed as formation of secondary structure at 10 uM incubated for 30 mins by CD spectroscopy
Chain of Envelope glycoprotein gp160 (Human immunodeficiency virus 1) (Q6QLK5 1-814): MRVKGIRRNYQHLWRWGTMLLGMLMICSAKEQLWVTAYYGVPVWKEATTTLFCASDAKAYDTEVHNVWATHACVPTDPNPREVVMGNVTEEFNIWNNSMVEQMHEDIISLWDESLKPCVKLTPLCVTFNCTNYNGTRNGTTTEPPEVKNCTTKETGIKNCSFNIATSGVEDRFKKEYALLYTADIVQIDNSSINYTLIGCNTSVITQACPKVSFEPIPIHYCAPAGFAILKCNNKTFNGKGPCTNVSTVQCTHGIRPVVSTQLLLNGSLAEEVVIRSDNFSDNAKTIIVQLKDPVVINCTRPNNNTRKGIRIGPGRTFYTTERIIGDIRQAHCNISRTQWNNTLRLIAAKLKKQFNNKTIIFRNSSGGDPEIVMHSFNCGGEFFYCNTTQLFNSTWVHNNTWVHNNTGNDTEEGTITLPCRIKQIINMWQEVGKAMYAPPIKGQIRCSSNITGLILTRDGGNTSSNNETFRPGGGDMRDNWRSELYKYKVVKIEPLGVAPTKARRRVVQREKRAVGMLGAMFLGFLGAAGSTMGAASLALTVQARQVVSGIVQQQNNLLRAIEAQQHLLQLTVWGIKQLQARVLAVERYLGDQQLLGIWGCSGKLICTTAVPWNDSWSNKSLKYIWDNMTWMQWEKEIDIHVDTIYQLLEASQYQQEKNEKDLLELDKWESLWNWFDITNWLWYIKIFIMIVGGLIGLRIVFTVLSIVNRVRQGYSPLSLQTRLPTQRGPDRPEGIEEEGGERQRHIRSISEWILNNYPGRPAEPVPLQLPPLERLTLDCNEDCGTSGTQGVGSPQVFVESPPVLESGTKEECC

[2] = test system: Human immunodeficiency virus 1; experiment: Ratio of EC50 for antiviral activity against X4 tropic HIV-1 subtype-B 3B infected in human MT2 cells or CEMx174 5.25 M7 cells in absence of HP23 to EC50 for antiviral activity against X4 tropic HIV-1 subtype-B 3B infected in human MT2 cells or CEMx174 5.25 M7 cells at 12:1 compound to HP23 ratio; type: functional, HIV-1 group M
[3] = test system: Human immunodeficiency virus 1; experiment: (§1) Ratio of EC50 for antiviral activity against R5 tropic HIV-1 subtype-B Bal infected in human MT2 cells or CEMx174 5.25 M7 cells in absence of HP23 to EC50 for antiviral activity against R5 tropic HIV-1 subtype-B Bal infected in human MT2 cells or CEMx174 5.25 M7 cells at 12:1 compound to HP23 ratio; type: functional, HIV-1 group M
[4] = test system: Human immunodeficiency virus 1; experiment: Ratio of EC50 for antiviral activity against R5 tropic HIV-1 subtype-B Bal infected in human MT2 cells or CEMx174 5.25 M7 cells in absence of HP23 to EC50 for antiviral activity against R5 tropic HIV-1 subtype-B Bal infected in human MT2 cells or CEMx174 5.25 M7 cells at 24:1 compound to HP23 ratio; type: functional, HIV-1 group M
[5] = test system: Human immunodeficiency virus 1; experiment: Ratio of EC50 for antiviral activity against HIV1 NL4-3 infected in human MT2 cells or CEMx174 5.25 M7 cells in absence of HP23 to EC50 for antiviral activity against HIV1 NL4-3 infected in human MT2 cells or CEMx174 5.25 M7 cells at 5:1 compound to HP23 ratio; type: functional
[6] = test system: Human immunodeficiency virus 1; experiment: Ratio of EC50 for antiviral activity against HIV1 NL4-3 infected in human MT2 cells or CEMx174 5.25 M7 cells in absence of HP23 to EC50 for antiviral activity against HIV1 NL4-3 infected in human MT2 cells or CEMx174 5.25 M7 cells at 20:1 compound to HP23 ratio; type: functional
[7] = test system: Human immunodeficiency virus 1; experiment: (§2) Synergistic antiviral activity against T20 resistant HIV1 NL4-3 harboring with V38E/N42S mutant infected in human MT2 cells or CEMx174 5.25 M7 cells assessed as reduction in p24 Gag protein production by measuring combination index at 14000:1 compound to HP23 ratio measured at 4 days post-infection by ELISA; type: functional
[8] = test system: Human immunodeficiency virus 1; experiment: Antiviral activity against T20 resistant HIV1 NL4-3 harboring with V38E/N42S mutant infected in human MT2 cells or CEMx174 5.25 M7 cells assessed as reduction in p24 Gag protein production at 7000:1 compound to HP23 ratio measured at 4 days post-infection by ELISA; type: functional, organism-based
[9] = test system: Human immunodeficiency virus 1; experiment: Antiviral activity against T20 resistant HIV1 NL4-3 harboring with V38E/N42S mutant infected in human MT2 cells or CEMx174 5.25 M7 cells assessed as reduction in p24 Gag protein production at 14000:1 compound to HP23 ratio measured at 4 days post-infection by ELISA; type: functional, organism-based
[10] = test system: Human immunodeficiency virus 1; experiment: as §2, with “V38E/N42T” for “V38E/N42S”, “150:1” for “14000:1”; type: functional
[11] = test system: Human immunodeficiency virus 1; experiment: Antiviral activity against T20 resistant HIV1 NL4-3 harboring with V38E/N42T mutant infected in human MT2 cells or CEMx174 5.25 M7 cells assessed as reduction in p24 Gag protein production at 150:1 compound to HP23 ratio measured at 4 days post-infection by ELISA; type: functional, organism-based
[12] = test system: Human immunodeficiency virus 1; experiment: Antiviral activity against T20 resistant HIV1 NL4-3 harboring with V38E/N42T mutant infected in human MT2 cells or CEMx174 5.25 M7 cells assessed as reduction in p24 Gag protein production at 600:1 compound to HP23 ratio measured at 4 days post-infection by ELISA; type: functional, organism-based
[13] = test system: Human immunodeficiency virus 1; experiment: Antiviral activity against T2635 resistant HIV1 LAI harboring Q66R mutant infected in human MT2 cells or CEMx174 5.25 M7 cells assessed as reduction in p24 Gag protein production at 12.5:1 ratio of compound to HP23 measured at 4 days post infection by ELISA; type: functional, organism-based, M:B_Lai
[14] = test system: Human immunodeficiency virus 1; experiment: as §1, with “hCS6ERE” for “HP23”, “12:1 ratio of hCS6ERE to” for “12:1”, “compound” for “compound to HP23 ratio”; type: functional, HIV-1 group M
[15] = test system: Human immunodeficiency virus 1; experiment: Antiviral activity against HIV1 NL4-3 infected in human MT2 cells or CEMx174 5.25 M7 cells assessed as reduction in p24 Gag protein production at 5:1 hCS6ERE to compound ratio measured at 4 days post-infection by ELISA; type: functional, organism-based; conditions: Human immunodeficiency virus 1, NL4-3, 96 h
[16] = test system: Human immunodeficiency virus 1; experiment: (§3) Ratio of EC50 for antiviral activity against HIV1 NL4-3 infected in human MT2 cells or CEMx174 5.25 M7 cells in absence of hCS6ERE to EC50 for antiviral activity against HIV1 NL4-3 infected in human MT2 cells or CEMx174 5.25 M7 cells at 20:1 hCS6ERE to compound ratio; type: functional
[17] = test system: Human immunodeficiency virus 1; experiment: Antiviral activity against T20 resistant HIV1 NL4-3 harboring with V38E/N42S mutant infected in human MT2 cells or CEMx174 5.25 M7 cells assessed as reduction in p24 Gag protein production at 7000:1 hCS6ERE to compound ratio measured at 4 days post-infection by ELISA; type: functional, organism-based
[18] = test system: Human immunodeficiency virus 1; experiment: as §3, with “against T20 resistant” for “against”, “NL4-3 harboring with V38E/N42S mutant” for “NL4-3”, “3500:1” for “20:1”; type: functional
[19] = test system: Human immunodeficiency virus 1; experiment: Antiviral activity against T20 resistant HIV1 NL4-3 harboring with V38E/N42T mutant infected in human MT2 cells or CEMx174 5.25 M7 cells assessed as reduction in p24 Gag protein production at 150:1 hCS6ERE to compound ratio measured at 4 days post-infection by ELISA; type: functional, organism-based
[20] = test system: Human immunodeficiency virus 1; experiment: Antiviral activity against T20 resistant HIV1 NL4-3 harboring with V38E/N42T mutant infected in human MT2 cells or CEMx174 5.25 M7 cells assessed as reduction in p24 Gag protein production at 300:1 hCS6ERE to compound ratio measured at 4 days post-infection by ELISA; type: functional, organism-based
[21] = test system: Human immunodeficiency virus 1; experiment: Antiviral activity against T20 resistant HIV1 NL4-3 harboring with V38E/N42T mutant infected in human MT2 cells or CEMx174 5.25 M7 cells assessed as reduction in p24 Gag protein production at 600:1 hCS6ERE to compound ratio measured at 4 days post-infection by ELISA; type: functional, organism-based

CC[C@H](C)[C@H](NC(C)=O)C(=O)N[C@@H](CCC(=O)O)C(=O)N[C@@H](CCC(=O)O)C(=O)N[C@@H](CC(C)C)C(=O)N[C@H](C(=O)NC1CCSCc2cccc(c2)CSCCC(C(=O)N[C@@H](CCC(N)=O)C(=O)N[C@@H](CCC(N)=O)C(=O)N[C@@H](CCCNC(=N)N)C(=O)N[C@@H](CCCCN)C(=O)N[C@@H](CC(N)=O)C(=O)N[C@@H](CCC(=O)O)C(=O)N[C@@H](CCC(=O)O)C(=O)N[C@@H](C)C(=O)N[C@@H](CC(C)C)C(=O)N[C@@H](CCCNC(=N)N)C(=O)N[C@@H](CCC(=O)O)C(=O)N[C@@H](CC(C)C)C(N)=O)NC(=O)[C@H](CCC(N)=O)NC(=O)[C@H](C)NC(=O)[C@H](C)NC1=O)[C@@H](C)CC (stereo partly specified) (Ac-IEELI[ξhCys]AAQ[ξhCys]QQRKNEEALREL-NH2; linker 6-10 via mXylylene)
Activity [1]: Active | Ratio EC50 [2]: 2.4 | Ratio EC50 [3]: 2.6 | Ratio EC50 [4]: 2.6 | Ratio EC50 [5]: 5 | Ratio EC50 [6]: 1.6 | CI [7]: 0.6 | EC50 [8]: 2.52 µM | EC50 [9]: 3.17 µM | CI [10]: 0.9 | EC50 [11]: 0.327 µM | EC50 [12]: 0.468 µM | EC50 [13]: 0.0229 µM

H-EMTWEEWEKKIEEYTKKIEEILK-OH
Ratio EC50 [14]: 2.6 | EC50 [15]: 0.0009 µM | Ratio EC50 [16]: 4.9 | EC50 [17]: 0.0004 µM | Ratio EC50 [18]: 2.3 | EC50 [19]: 0.0022 µM | EC50 [20]: 0.0014 µM | EC50 [21]: 0.0008 µM
